“Also recorded” adds a separate entry of the source.
Experiments:
[1] = DLS association of DAP with fondaparinux; type: binding
Protocol: Rivaroxaban (XARELTO®) alone, DAP alone, and DAP:rivaroxaban combinations at mass ratios of 1:1 and 10:1 were added into an aqueous solution and analyzed by dynamic light scattering (DLS) to assess association of the DAP and rivaroxaban. A similar experiment was conducted on apixaban (ELIQUIS®) alone, DAP alone, and DAP:apixaban combinations at mass ratios of 1:1, 10:1 and 100:1. Fondaparinux (ARIXTRA®) alone, DAP alone, and fondaparinux:DAP combinations at mass ratios of 1:1, 10:1 and 100:1 were similarly tested. LMWH (bemiparin; HIBOR®), alone, DAP alone, and LMWH:DAP combinations at mass ratios of 1:1, 10:1, and 100:1 were also tested. The concentration of LMWH tested was 0.1 mg/ml. Therefore, at 1:1, 0.1 mg/ml DAP was tested, at 10:1, 1 mg/ml was tested, and at 100:1, 10 mg/ml DAP was tested.

[2] = tested on: rivaroxaban (XARELTO®) anticoagulation; experiment: DAP reversal of rivaroxaban (XARELTO®) anticoagulation in vivo, aPTT; parameters: species or system rat; conditions: rats, 5 mg/kg rivaroxaban oral, 5 mg/kg (2 mg) DAP i.v.
Protocol: The activated partial thromboplastin time (aPTT) assay is an assay that measures how long it takes for the blood to clot. Blood samples are collected for direct measurement or in tubes with oxalate and citrate to arrest coagulation by calcium until the assay can be performed. In the assay, a phospholipid, an activator (silica, celite, kaolin, ellagic acid, etc.), and calcium are mixed into the plasma to induce coagulation. The assay measures the time until a thrombus (clot) forms.
5 mg/kg rivaroxaban (XARELTO®) was orally administered to rats. After four hours, 5 mg/kg of DAP (2 mg DAP) was administered intravenously. aPTT were measured at zero, 15, 30, 45, 60 and 240 minutes, prior to administration of DAP. aPTT was again measured at about 5, 10, 25, 35, 45, 60, 120, and 240 minutes after DAP administration.

[3] = tested on: fondaparinux anticoagulation; experiment: DAP reversal of fondaparinux (ARIXTRA®) anticoagulation in vivo, chromogenic Factor Xa assay; parameters: species or system rat
Protocol: The anti-factor Xa assay directly measures anti-factor Xa activity. The methodology behind an anti-factor Xa assay is that patient plasma is added to a known amount of excess factor Xa and excess antithrombin. If a factor Xa inhibitor is present in the patient plasma, it will reduce the enzymatic activity of factor Xa. The amount of residual factor Xa is inversely proportional to the amount of anti-Xa agent in the plasma. The amount of residual factor Xa is detected by adding a chromogenic substrate that mimics the natural substrate of factor Xa, making residual factor Xa cleave it, releasing a colored compound that can be detected by a spectrophotometer. […] Results are given in anticoagulant concentration in units/mL of antifactor Xa, such that high values indicate high levels of anticoagulation and low values indicate low levels of anticoagulation.
5 mg/kg fondaparinux was administered subcutaneously to rats. 200 mg/kg DAP was administered intravenously after 2 hours. Activity was measured by chromogenic 510 k cleared Factor Xa Assay (Biophen) at 10, 20, 30 and 60 minutes after DAP administration.

[4] = tested on: rivaroxaban anticoagulation; experiment: DAP reversal of rivaroxaban in human plasma ex vivo, Biophen anti-Factor Xa chromogenic assay; type: biochemical
Protocol: The anti-factor Xa assay directly measures anti-factor Xa activity. The methodology behind an anti-factor Xa assay is that patient plasma is added to a known amount of excess factor Xa and excess antithrombin. If a factor Xa inhibitor is present in the patient plasma, it will reduce the enzymatic activity of factor Xa. The amount of residual factor Xa is inversely proportional to the amount of anti-Xa agent in the plasma. The amount of residual factor Xa is detected by adding a chromogenic substrate that mimics the natural substrate of factor Xa, making residual factor Xa cleave it, releasing a colored compound that can be detected by a spectrophotometer. […]
218 μg/L or 459 μg/L of rivaroxaban was added to human plasma, with or without 1,250 μg/L or 6,250 μg/L of DAP, respectively. […] DAP effect on anticoagulation was measured by 510 k cleared Biophen anti-Factor Xa chromogenic assay. Rivaroxaban concentrations were determined by comparison with plasma calibration standards, while apixaban concentrations were inferred from stock solution dilutions as calibration standards are not yet available.
218 μg/L rivaroxaban was added to human plasma either alone or in combination with 1.25, 12.5, 125, or 1,250 μg/L of DAP. Factor Xa activity was measured by 510 k cleared Biophen anti-Xa chromogenic assay kit. Rivaroxaban concentrations were determined by comparison with plasma calibration standards.

[5] = tested on: plasma proteins; experiment: Plasma protein binding; type: in vitro ADME; conditions: data not shown

N=C(N)NCCC[C@H](N)C(=O)NCCCN1CCN(CCCNC(=O)[C@@H](N)CCCNC(=N)N)CC1 (stereo in doubt) [DAP, 2-Amino-5-guanidino-pentanoic acid (3-{4-[3-(2-amino-5-guanidino-pentanoylamino)-propyl]-piperazin-1-yl}-propyl)-amide]
binding by DLS [1]: directly bound | reversal of oral rivaroxaban anticoagulation in vivo [2]: effectively reversed | time to reversal of fondaparinux anticoagulation ([3]; 5 mg/kg fondaparinux s.c., 200 mg/kg DAP i.v. after 2 hours): ≤ 10 min | reversal of subcutaneous fondaparinux in vivo ([3]; rats, Xa activity): reversed | effective anticoagulant concentration after DAP ([4]; 218 μg/L rivaroxaban with 1,250 μg/L DAP, 459 μg/L rivaroxaban with 6,250 μg/L DAP): below the minimum effective concentration | dose dependence of rivaroxaban reversal ([4]; 218 μg/L rivaroxaban, 1.25, 12.5, 125, or 1,250 μg/L DAP): dose-responsive trend; also recorded: dose-dependent reversal | plasma protein binding [5]: did not appreciably bind
